# From US10258610B2, “Pharmaceutical compositions comprising rifaximin, processes for their preparation and their use in the treatment of vaginal infections” (ALFASIGMA S.P.A., priority 2011, dated 2019)
# Tests used:
# bacterial vaginosis = test: Phase II clinical trial, recovery by Amsel criteria and Nugent score; assay type: in vivo, human; settings: for Recovery of patients after relapse of bacterial vaginosis / Recovery of patients suffering from a first episode of bacterial vaginosis: visit V4 as titled, Amsel and Nugent
# Excerpt: The example describes the clinical trial Phase II carried out on 114 patients affected by bacterial vaginosis, non-pregnant, having an age between 18 and 50 years. The diagnosis of bacterial vaginosis was based on Amsel criteria, wherein at least three criteria out of four must be positive, and on the Nugent score, wherein a score higher than four indicates the presence of pathogenic vaginal bacteria. The objectives of the trial were the evaluation of recovery from bacterial vaginosis both according to Amsel criteria (Amsel index <3) and according to Nugent score (Nugent index <4) 7-10 days after the end of the therapy. The secondary objectives of the trial were the recovery, separately evaluated according to Amsel criteria and to Nugent score, at the first control visit (V3), the continued recovery at the second control visit (V4) and the evaluation of the composition of vaginal microbiota by means of PCR and PCR-DGGE. In particular, the patients affected by bacterial vaginosis and not affected by contemporaneous viral, protozoan and fungal vaginal infections were assigned to one of the following treatment groups using a centralized randomization procedure and a double-blind experimental design: Group A: 21 patients receiving a vaginal tablet of rifaximin containing 100 mg rifaximin, prepared according to Example 2, once a day for five days, in the evening; Group B: 23 patients receiving a vaginal tablet of rifaximin containing 25 mg rifaximin, prepared according to Example 1, once a day for five days, in the evening; Group C: 19 patients receiving a vaginal tablet of rifaximin containing 100 mg rifaximin, prepared according to Example 2, once a day for two days, in the evening, plus a vaginal tablet of placebo, once a day for the remaining three days, in the evening; Group D: 22 patients receiving a placebo tablet prepared according to Example 1, wherein the rifaximin amount was replaced by lactose monohydrate, once a day for five days, in the evening. The study included a screening visit (V1) followed by a randomization visit after seven days (V2), by a first control visit 7-10 days after the end of the therapy (V3) and by a second and last control visit 28-35 days after the end of the therapy (V4). The evaluation of the attainment of the primary objective was carried out during visit V3, and the evaluation of the attainment of the secondary objectives was evaluated during the second and last visit (V4). Table 18 reports the percent recovery from the disease at the visit V3, according to both evaluation criteria, namely the clinical one (Amsel) and the microbiological (Nugent). The recovery was evaluated according to Nugent score by using a Gram stained slide and by evaluating the proportion between Lactobacilli and other bacteria such as Gram-variable or Gram-negative coccobacilli, Gram-variable curved bacilli.
# vaginal microbiota = test: Vaginal microbiota by PCR-DGGE (cluster analysis, Similarity Index, Richness Index); assay type: in vivo, human; design: key to Similarity Index V1-V3 / Similarity Index V1-V4 / Similarity Index V3-V4 / Similarity Index V1-V3-V4: % similarity between DGGE profiles (Pearson correlation)
# Protocol: During the clinical trial samples of vaginal rinses were taken, and the composition of vaginal microbiota was determined by means of the PCR-DGGE technique, allowing the identification of various bacterial DNA through an electrophoretic process and a DNA amplification with universal primers for the bacterial 16S rRNA region. The result of this technique was a sequence of visible bands, called clusters, wherein each of them is representative for the DNA of bacterial species present in the considered sample. The analysis of clusters of DGGE profiles of samples, carried out by using the FPQuest software (Bio-Rad) gives the information relating to the similarity of two samples. In the specific case wherein the recovery is intended as reduction of pathogenic species, it is positive that the sample of a patient after treatment is quite different from the sample of the same patient before treatment. The analysis was carried out with vaginal samples at the visits V1, V3 and V4 for the four groups A, B, C and D of treated patients. In order to evaluate the pharmacological action of the examined rifaximin preparations, different treatment groups were compared through the so called Similarity Indexes (SI). The analysis consists in evaluating the similarity of electrophoretic profiles calculated on the basis of the Pearson correlation coefficient. In the examined case, SI indicates the percent similarity between two or more DGGE profiles belonging to the same person at the different visits. Another adopted criterion of evaluation of the samples is the so called Richness Index (RI). This criterion, based on the bands of each DGGE profile, gives the measure of the complexity of the bacterial population, which is a sign of disease for the occurrence of new pathogenic species. Table 32 reports the RI average values, measured at the visits V1 and V3.
# [1] = visit V3, Group A: 1 tablet 100 mg × 5 days
# [2] = visit V3, Group A: 1 tablet 100 mg × 5 days, listed as rifaximin
# [3] = visit V3, Group B: 1 tablet 25 mg × 5 days
# [4] = visit V3, Group B: 1 tablet 25 mg × 5 days, listed as rifaximin
# [5] = visit V3, Group C: 1 tablet 100 mg × 2 days
# [6] = visit V3, Group C: 1 tablet 100 mg × 2 days, listed as rifaximin
# [7] = Group A: 1 tablet 100 mg × 5 days
# [8] = Group B: 1 tablet 25 mg × 5 days
# [9] = Group C: 1 tablet 100 mg × 2 days
structure (smiles),measurement,setting,value
CO[C@H]1/C=C/O[C@@]2(C)Oc3c(C)c(O)c4c(O)c(c5c(nc6cc(C)ccn65)c4c3C2=O)NC(=O)/C(C)=C\C=C\[C@H](C)[C@H](O)[C@@H](C)[C@@H](O)[C@@H](C)[C@H](OC(C)=O)[C@@H]1C [Rifaximin],Patients with decrease Nugent score ≥8 points,bacterial vaginosis; [1],14.29%
same,Patients with decreased Nugent score ≤0 points (not responding),bacterial vaginosis; [1],9.52%
same,Patients with decreased Nugent score ≥3 points,bacterial vaginosis; [1],52.4%
same,Patients with decreased Nugent score ≥5 points,bacterial vaginosis; [1],28.6%
same,"Recovered patients, both criteria (Amsel and Nugent)",bacterial vaginosis; [1],25.9%
same,"Recovered patients, clinical evaluation criteria (Amsel)",bacterial vaginosis; [1],66.7%
same,"Recovered patients, microbiological evaluation criteria (Nugent)",bacterial vaginosis; [1],25.9%
same,Patients with decreased Nugent score ≥3 points,bacterial vaginosis; [2],higher than 50%
same,Patients with decreased Nugent score ≥5 points,bacterial vaginosis; [2],about 28%
same,"Recovered patients, microbiological evaluation criteria (Nugent)",bacterial vaginosis; [2],about 25%
same,Patients with decrease Nugent score ≥8 points,bacterial vaginosis; [3],17.39%
same,Patients with decreased Nugent score ≤0 points (not responding),bacterial vaginosis; [3],17.39%
same,Patients with decreased Nugent score ≥3 points,bacterial vaginosis; [3],65.2%
same,Patients with decreased Nugent score ≥5 points,bacterial vaginosis; [3],47.8%
same,"Recovered patients, both criteria (Amsel and Nugent)",bacterial vaginosis; [3],48.0%
same,"Recovered patients, clinical evaluation criteria (Amsel)",bacterial vaginosis; [3],80.0%
same,"Recovered patients, microbiological evaluation criteria (Nugent)",bacterial vaginosis; [3],48.0%
same,Patients with decreased Nugent score ≥3 points,bacterial vaginosis; [4],higher than 65%
same,Patients with decreased Nugent score ≥5 points,bacterial vaginosis; [4],about 48%
same,"Recovered patients, microbiological evaluation criteria (Nugent)",bacterial vaginosis; [4],47%
same,Patients with decrease Nugent score ≥8 points,bacterial vaginosis; [5],15.79%
same,Patients with decreased Nugent score ≤0 points (not responding),bacterial vaginosis; [5],36.84%
same,Patients with decreased Nugent score ≥3 points,bacterial vaginosis; [5],36.9%
same,Patients with decreased Nugent score ≥5 points,bacterial vaginosis; [5],26.3%
same,"Recovered patients, both criteria (Amsel and Nugent)",bacterial vaginosis; [5],36.0%
same,"Recovered patients, clinical evaluation criteria (Amsel)",bacterial vaginosis; [5],72.0%
same,"Recovered patients, microbiological evaluation criteria (Nugent)",bacterial vaginosis; [5],36.0%
same,Patients with decreased Nugent score ≥3 points,bacterial vaginosis; [6],higher than 30%
same,Patients with decreased Nugent score ≥5 points,bacterial vaginosis; [6],about 26%
same,"Recovered patients, microbiological evaluation criteria (Nugent)",bacterial vaginosis; [6],about 36%
same,"Recovered patients, both criteria (Amsel and Nugent)","bacterial vaginosis; visit V4, Group A: 1 tablet 100 mg × 5 days",14.8%
same,"Recovered patients, both criteria (Amsel and Nugent)","bacterial vaginosis; visit V4, Group B: 1 tablet 25 mg × 5 days",28.0%
same,"Recovered patients, both criteria (Amsel and Nugent)","bacterial vaginosis; visit V4, Group C: 1 tablet 100 mg × 2 days",4.0%
same,Recovery of patients after relapse of bacterial vaginosis,bacterial vaginosis; [7],38.5%
same,Recovery of patients suffering from a first episode of bacterial vaginosis,bacterial vaginosis; [7],14.3%
same,Recovery of patients after relapse of bacterial vaginosis,bacterial vaginosis; [8],53.8%
same,Recovery of patients suffering from a first episode of bacterial vaginosis,bacterial vaginosis; [8],41.7%
same,Recovery of patients after relapse of bacterial vaginosis,bacterial vaginosis; [9],46.2%
same,Recovery of patients suffering from a first episode of bacterial vaginosis,bacterial vaginosis; [9],25.0%
same,"Percent of patients with clusterizing profiles, V1 vs. V3",vaginal microbiota; [7],37%
same,"Percent of patients with clusterizing profiles, V1 vs. V3 vs. V4",vaginal microbiota; [7],0%
same,Similarity Index V1-V3,vaginal microbiota; [7],61.6
same,Similarity Index V1-V3-V4,vaginal microbiota; [7],50.8
same,Similarity Index V1-V4,vaginal microbiota; [7],52.1
same,Similarity Index V3-V4,vaginal microbiota; [7],66.8
same,"Percent of patients with clusterizing profiles, V1 vs. V3",vaginal microbiota; [8],24%
same,"Percent of patients with clusterizing profiles, V1 vs. V3 vs. V4",vaginal microbiota; [8],0%
same,Similarity Index V1-V3,vaginal microbiota; [8],48.4
same,Similarity Index V1-V3-V4,vaginal microbiota; [8],36.4
same,Similarity Index V1-V4,vaginal microbiota; [8],40.0
same,Similarity Index V3-V4,vaginal microbiota; [8],62.1
same,"Percent of patients with clusterizing profiles, V1 vs. V3",vaginal microbiota; [9],28%
same,"Percent of patients with clusterizing profiles, V1 vs. V3 vs. V4",vaginal microbiota; [9],11%
same,Similarity Index V1-V3,vaginal microbiota; [9],54.0
same,Similarity Index V1-V3-V4,vaginal microbiota; [9],37.6
same,Similarity Index V1-V4,vaginal microbiota; [9],47.1
same,Similarity Index V3-V4,vaginal microbiota; [9],42.8
same,Richness Index,"vaginal microbiota; visit V1 (before therapy), Group A: 1 tablet 100 mg × 5 days",13.5
same,Richness Index,"vaginal microbiota; visit V1 (before therapy), Group B: 1 tablet 25 mg × 5 days",14.0
same,Richness Index,"vaginal microbiota; visit V1 (before therapy), Group C: 1 tablet 100 mg × 2 days",15.4
same,Richness Index,vaginal microbiota; [1],10.9
same,Richness Index,vaginal microbiota; [3],10.7
same,Richness Index,vaginal microbiota; [5],12.2
